IC50 data for 26 compounds are collected here from patent publication US20250084078A1, “FUSED RING-SUBSTITUTED SIX-MEMBERED HETEROCYCLIC COMPOUND, AND PREPARATION METHOD THEREFOR AND USE THEREOF” (GENFLEFT THERAPEUTICS (SHANGHAI) INC., priority 2022, published 2025).

SMILES strings stand for the structures. pIC50: −log10 of the molar value. Counter-ions that a name gives are not always drawn.

Test [1] has as its target T1, HPK1 (Homo sapiens, UniProt Q92918).
T1 sequence (Q92918 1-346): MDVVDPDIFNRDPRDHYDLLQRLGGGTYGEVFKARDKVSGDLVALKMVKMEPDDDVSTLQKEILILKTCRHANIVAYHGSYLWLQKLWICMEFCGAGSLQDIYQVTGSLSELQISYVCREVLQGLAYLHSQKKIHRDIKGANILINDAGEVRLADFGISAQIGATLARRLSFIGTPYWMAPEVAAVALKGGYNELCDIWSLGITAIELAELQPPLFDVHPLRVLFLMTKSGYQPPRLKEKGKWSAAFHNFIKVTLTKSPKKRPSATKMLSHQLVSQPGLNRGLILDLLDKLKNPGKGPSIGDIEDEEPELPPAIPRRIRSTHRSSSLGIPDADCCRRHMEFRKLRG
Kind of test: HPK1 kinase activity assay (ADP-Glo). To be noted: HPK1 Kinase activity IC50, ADP-Glo; 1 nM HPK1, 10 μM ATP, 0.1 μg/μL MBP.
Procedure: Preparation of buffer: Ix reaction buffer (40 mM Tris-HCl, 20 mM MgCl2, 0.01% Brij35, 50 μM DTT, 0.1 mg/ml BSA) was prepared using sterile water, which was prepared and used on the day of the experiment.
Preparation of 1000× drug stock plate: a 1000× compound stock plate was prepared. […] The compound stock plate was sealed with a sealing film and stored in a −20° C. refrigerator for later use.
Compound preparation and dosing: the 1000× drug stock plate was taken and melted at room temperature in the dark. Then 5× drug intermediate plate was prepared using reaction buffer and mixed well. 2 μL was transferred from the 5× drug intermediate plate into a 384-well plate, and negative control well and positive control well (in which 2 μL reaction buffer containing 0.5% DMSO was added) were set. Each point was repeated twice.
Preparation and incubation of reaction mixture: HPK1 protein was diluted to a 2.5× working solution with reaction buffer. 4 μL 2.5×HPK1 protein was added to each well containing test compound and positive control well, and 4 μL of reaction buffer without HPK1 protein was added to the negative control well. The obtained mixture was centrifuged at 1000 rpm for 1 min and then incubated in a 20° C. incubator for 15 min. A 2.5× mixed working solution of MBP protein and ATP was prepared with reaction buffer at concentrations of 0.5 μg/μL and 50 μM, respectively. 4 μL of the mixed working solution of MBP and ATP was added to each well, centrifuged at 1000 rpm for 1 min, and then incubated in a 20° C. incubator for 90 min.
ADP-Glo detection and reading plate: 10 μl ADP-Glo was added to each well of the test plate. The resulting mixture was centrifuged at 1000 rpm for 1 min and incubated in a 20° C. incubator for 60 min. Then 10 μL of the final incubation solution was transferred from the test plate to a new 384-well plate. 10 μL of kinase detection reagent was added to each well, centrifuged at 400 g for 1 min, and incubated in a 20° C. incubator for 60 min Chemiluminescent signals were read by a microplate reader.

The target of test [2] is HPK1 (Homo sapiens, UniProt Q92918). Description: SLP76 phosphorylation assay (intracellular HPK1 inhibitory activity, p-SLP76 S376 ELISA in Jurkat cells). To be noted: p-SLP76 IC50, Jurkat, Clone E6-1 cells; 1 h compound pre-incubation; anti-CD3 beads stimulation 20 min; Phospho-SLP-76 (Ser376) ELISA.
Target sequence in this assay (Q92918 whole entry): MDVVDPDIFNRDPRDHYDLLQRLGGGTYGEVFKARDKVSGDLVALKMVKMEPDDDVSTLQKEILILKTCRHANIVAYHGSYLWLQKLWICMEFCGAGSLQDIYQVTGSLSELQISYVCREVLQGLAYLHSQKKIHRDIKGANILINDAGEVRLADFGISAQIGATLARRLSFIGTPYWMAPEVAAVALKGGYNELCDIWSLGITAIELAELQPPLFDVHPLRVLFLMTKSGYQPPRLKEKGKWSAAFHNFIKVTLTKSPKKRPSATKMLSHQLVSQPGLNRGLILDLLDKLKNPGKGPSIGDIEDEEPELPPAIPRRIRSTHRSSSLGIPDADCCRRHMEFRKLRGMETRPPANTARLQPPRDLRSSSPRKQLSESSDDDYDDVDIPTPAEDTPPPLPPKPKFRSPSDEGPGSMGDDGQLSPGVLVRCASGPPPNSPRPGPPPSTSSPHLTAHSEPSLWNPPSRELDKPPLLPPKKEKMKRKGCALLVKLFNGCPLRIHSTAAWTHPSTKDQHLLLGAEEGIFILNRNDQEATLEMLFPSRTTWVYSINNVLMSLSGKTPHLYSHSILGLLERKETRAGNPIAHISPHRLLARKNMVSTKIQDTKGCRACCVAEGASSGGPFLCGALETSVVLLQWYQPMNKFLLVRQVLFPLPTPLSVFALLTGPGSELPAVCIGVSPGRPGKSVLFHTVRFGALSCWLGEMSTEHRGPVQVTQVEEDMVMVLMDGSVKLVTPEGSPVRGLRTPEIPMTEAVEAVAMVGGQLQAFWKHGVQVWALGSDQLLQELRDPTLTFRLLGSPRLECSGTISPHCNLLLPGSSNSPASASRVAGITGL

For `Cc1c[nH]c2ncc(-c3cc4c(c([C@@H]5COCCN5)c3)CN(C(=O)N3CCC(F)CC3)CC4)cc12` [Compound Z585, (R)-(4-fluoropiperidin-1-yl)(6-(3-methyl-1H-pyrrolo[2,3-b]pyridin-5-yl)-8-(morpholin-3-yl)-3,4-dihydroisoquinolin-2(1H)-yl)methanone], the pIC50 is 9.60 against HPK1 [1] and 7.08 against HPK1 [2].
For the compound `O=C(N1CCc2cc(-c3cnc4[nH]cc(C(F)(F)F)c4n3)cc([C@@H]3COCCN3)c2C1)N1CC2CCC(C1)O2` [Compound Z606, (8-oxa-3-azabicyclo[3.2.1]octan-3-yl)(8-((R)-morpholin-3-yl)6-(7-(trifluoromethyl)-5H-pyrrolo[2,3-b]pyrazin-2-yl)-3,4-dihydroisoquinolin-2(1H)-yl)methanone], the pIC50 against HPK1 [1] was 9.60; at HPK1 [2], 7.20.
For the compound `CCc1c(Cl)[nH]c2ncc(-c3cc4c(c([C@@H]5CCCN5)c3)CN(C(=O)COC)CC4)cc12` [Compound Z411], the negative logarithm of the IC50 (pIC50) at HPK1 [1] is 8.95; against HPK1 [2], 6.37.
On the same counts, the results for `O=C(N1CCc2cc(-c3cnc4[nH]cc(Cl)c4c3)cc([C@@H]3COCCN3)c2C1)N1CC[C@H](F)C1` [Compound Z604, (6-(3-chloro-1H-pyrrolo[2,3-b]pyridin-5-yl)-8-((R)-morpholin-3-yl)-3,4-dihydroisoquinolin-2(1H)-yl)((S)-3-fluoropyrrolidin-1-yl)methanone] are 9.44 and 6.97.
On the same counts, the results for `Cc1c[nH]c2ncc(-c3cc4c(c([C@@H]5CCCN5)c3)CN(C(=O)N3CCOC(C(F)(F)F)C3)CC4)cc12` (stereo partly drawn) [Compound Z497, [6-(3-methyl-1H-pyrrolo[2,3-b]pyridin-5-yl)-8-[(S)-pyrrolidin-2-yl]-3,4-dihydro-isoquinolin-2(1H)-yl]-[2-(trifluoromethyl)morpholin-4-yl]methanone] are 9.40 and 6.73.
Consider `Cc1c[nH]c2ncc(-c3cc4c(c([C@@H]5CCCN5)c3)CN(C(=O)[C@H](O)c3cccnc3)CC4)cc12` (single isomer, unassigned) [Compound Z287], for which the figures for the negative logarithm of the IC50 (pIC50) on HPK1 [1] and against HPK1 [2] were 9.40 and 6.47, respectively.
Consider `Cc1c[nH]c2ncc(-c3cc4c(c([C@@H]5CCCN5)c3)CN(C(=O)C(C)(C)C)CC4)cc12` [Compound Z126], for which the values for the pIC50 against HPK1 [1] and on HPK1 [2] were 9.11 and 6.60, respectively.
On the same counts, the results for `Cc1c[nH]c2ncc(-c3cc4c(c([C@@H]5CCCN5)c3)CN(C(=O)[C@@H](O)c3cccnc3)CC4)cc12` (single isomer, unassigned) [Compound Z288] are 9.16 and 6.49.
Take `O=C(N1CCc2cc(-c3cnc4[nH]cc(Cl)c4n3)cc([C@@H]3COCCN3)c2C1)N1CC2CCC(C1)O2` [Compound Z549, (8-oxa-3-azabicyclo[3.2.1]octan-3-yl)(6-(7-chloro-5H-pyrrolo[2,3-b]pyrazin-2-yl)-8-((R)-morpholin-3-yl)-3,4-dihydroisoquinolin-2(1H)-yl)methanone]: the values for the pIC50 on HPK1 [1] and against HPK1 [2] were 9.96 and 7.18, respectively.
On to `Cc1c[nH]c2ncc(-c3cc4c(c([C@@H]5COCCN5)c3)CN(C(=O)N3CCOC[C@@H]3C)CC4)nc12` [Compound Z574, (6-(7-methyl-5H-pyrrolo[2,3-b]pyrazin-2-yl)-8-((R)-morpholin-3-yl)-3,4-dihydroisoquinolin-2(1H)-yl)((S)-3-methylmorpholine)methanone], for which the values for the pIC50 at HPK1 [1] and against HPK1 [2] were 9.39 and 7.08, respectively.
With `O=C(N1CCc2cc(-c3cnc4[nH]cc(C(F)(F)F)c4c3)cc([C@@H]3COCCN3)c2C1)N1C2CCC1COC2` [Compound Z611], the values for the pIC50 at HPK1 [1] and on HPK1 [2] were 9.43 and 7.00, respectively.
Regarding `Cc1c[nH]c2ncc(-c3cc4c(c([C@@H]5COCCN5)c3)CN(C(=O)N3CCC(F)(F)CC3)CC4)nc12` [Compound Z624, (R)-(4,4-difluoropiperidin-1-yl)(6-(7-methyl-5H-pyrrolo[2,3-b]pyrazin-2-yl)-8-(morpholin-3-yl)-3,4-dihydroisoquinolin-2(1H)-yl)methanone], the negative logarithm of the IC50 (pIC50) against HPK1 [1] was 9.44; at HPK1 [2], 7.12.
As to `Cc1c[nH]c2ncc(-c3cc4c(c([C@@H]5COCCN5)c3)CN(C(=O)N3C[C@@H](C)O[C@H](C)C3)CC4)cc12` [Compound Z552, ((2R,6R)-2,6-dimethylmorpholine)(6-(3-methyl-1H-pyrrolo[2,3-b]pyridin-5-yl)-8-((R)-morpholin-3-yl)-3,4-dihydroisoquinolin-2(1H)-yl)methanone], the pIC50 was 9.66 against HPK1 [1] and 6.98 against HPK1 [2].
`O=C(N1CCc2cc(-c3cnc4[nH]cc(Cl)c4n3)cc([C@@H]3COCCN3)c2C1)N1C[C@@H]2CC[C@H]1CO2` (single isomer, unassigned) [Compound Z590]: the pIC50 at HPK1 [1] is 9.62; against HPK1 [2] it was 7.21.
In the case of `Cc1c[nH]c2ncc(-c3cc4c(c([C@@H]5COCCN5)c3)CN(C(=O)C3(C)CCOCC3)CC4)cc12` [Compound Z615, (R)-(6-(3-methyl-1H-pyrrolo[2,3-b]pyridin-5-yl)-8-(morpholin-3-yl)-3,4-dihydroisoquinolin-2(1H)-yl)(4-methyltetrahydro-2H-pyran-4-yl)methanone], the pIC50 on HPK1 [1] was 9.12; against HPK1 [2], 6.68.
For `Cc1c[nH]c2ncc(-c3cc4c(c([C@@H]5COCCN5)c3)CN(C(=O)N3C5CCC3COC5)CC4)nc12` [Compound Z570, (3-oxa-8-azabicyclo[3.2.1]octan-8-yl)(6-(7-methyl-5H-pyrrolo[2,3-b]pyrazin-2-yl)-8-((R)-morpholin-3-yl)-3,4-dihydroisoquinolin-2(1H)-yl)methanone], in that order: 9.89 and 7.50.
For `Cc1c[nH]c2ncc(-c3cc4c(c([C@@H]5CCCN5)c3)CN(C(=O)C(C)O)C4)cc12` (mixture of isomers) [Compound Z382, rac-2-hydroxy-1-(6-(3-methyl-1H-pyrrolo[2,3-b]pyridin-5-yl)-4-((R)-pyrrolidin-2-yl)isoindolin-2-yl)propan-1-one], in that order: 8.87 and 6.32.
For the compound `Cc1c[nH]c2ncc(-c3cc4c(c([C@@H]5COCCN5)c3)CN(C(=O)N3C[C@@H](C)O[C@H](C)C3)CC4)nc12` [Compound Z600], the values for the pIC50 against HPK1 [1] and against HPK1 [2] were 10.10 and 6.99, respectively.
For `Cc1c[nH]c2ncc(-c3cc4c(c([C@@H]5CCCN5)c3)CN(C(=O)N3CCOC(C(F)(F)F)C3)CC4)cc12` (single isomer, unassigned) [Compound Z490], in that order: 8.78 and 6.37.
As to `Cc1cc(CC(=O)N2CCc3c(cc(-c4cnc5[nH]cc(C)c5c4)cc3[C@@H]3CCCN3)C2)ccn1` [Compound Z333, (S)-2-(2-methyl-4-pyridyl)-1-[7-(3-methyl-1H-pyrrolo[2,3-b]pyridin-5-yl)-5-pyrrolidin-2-yl-3,4-dihydro-1H-isoquinolin-2-yl]ethanone], the pIC50 is 9.31 against HPK1 [1] and 6.69 against HPK1 [2].
As for `Cc1c[nH]c2ncc(-c3cc4c(c([C@@H]5CCCN5)c3)CN(C(=O)N3CCOC(C(F)(F)F)C3)CC4)cc12` (single isomer, unassigned) [Compound Z491], the pIC50 on HPK1 [1] is 8.89; against HPK1 [2], 6.51.
For `CCc1c[nH]c2ncc(-c3cc4c(c([C@@H]5COCCN5)c3)CN(C(=O)C(C)(C)O)CC4)cc12` [Compound Z476, (R)-1-(6-(3-ethyl-1H-pyrrolo[2,3-b]pyridin-5-yl)-8-(morpholin-3-yl)-3,4-dihydroisoquinolin-2(1H)-yl)-2-hydroxy-2-methylpropan-1-one], in that order: 9.68 and 7.17.
On the same counts, the results for `CCc1c[nH]c2ncc(-c3cc4c(c([C@@H]5COCCN5)c3)CN(C(=O)N3CCOCC3)CC4)nc12` [Compound Z528, (R)-(6-(7-ethyl-5H-pyrrolo[2,3-b]pyrazin-2-yl)-8-(morpholin-3-yl)-3,4-dihydroisoquinolin-2(1H)-yl)(morpholino)methanone] are 9.80 and 7.37.
For `Cc1c[nH]c2ncc(-c3cc4c(c([C@@H]5COCCN5)c3)CN(C(=O)[C@H]3CCOC3)CC4)cc12` [Compound Z469, [6-(3-methyl-1H-pyrrolidine[2,3-b]pyridin-5-yl)-8-[(R)-morpholin-3-yl]-3,4-dihydroisoquinolin-2(1H)-yl]-[(S)-tetrahydrofuran-3-yl]methanone], in that order: 10.22 and 6.90.
Consider `Cc1c[nH]c2ncc(-c3cc4c(c([C@@H]5COCCN5)c3)CN(C(=O)N3C[C@H]5C[C@@H]3CO5)CC4)nc12` [Compound Z607, ((1R,4R)-2-oxa-5-azabicyclo[2.2.1]heptan-5-yl)(6-(7-methyl-5H-pyrrolo[2,3-b]pyrazin-2-yl)-8-((R)-morpholin-3-yl)-3,4-dihydroisoquinolin-2(1H)-yl)methanone], for which the pIC50 against HPK1 [1] is 9.57; at HPK1 [2] it was 7.12.
Regarding `CCNC(=O)N1CCc2cc(-c3cnc4[nH]cc(C)c4c3)cc([C@@H]3COCCN3)c2C1` [Compound Z376, (R)—N-ethyl-6-(3-methyl-1H-pyrrolo[2,3-b]pyridin-5-yl)-8-(morpholin-3-yl)-3,4-dihydroisoquinoline-2(1H)-carboxamide formate], the pIC50 against HPK1 [1] is 9.48; at HPK1 [2], 6.68.
